This note sets out measurements from publication PMC5733122, “Purification, Characterization, and Mode of Action of Pentocin JL-1, a Novel Bacteriocin Isolated from Lactobacillus pentosus, against Drug-Resistant Staphylococcus aureus” (BioMed Research International, 2017).

In one series the test system is MRSA GIM 1.771. The series can be described thus: Minimal inhibitory concentration (MIC), 96-well microtiter plates. Type of series: cell-based, Staphylococcus aureus. To be noted: around 2 × 10^6 CFU/mL, 37°C, 24 h, 100% growth inhibition by absorbance at 540 nm, triplicate. As to the method:
Additionally, the minimal inhibitory concentration (MIC) of pentocin JL-1 against MRSA GIM 1.771 was tested. Overnight culture of MRSA GIM 1.771 with the concentration of around 2 × 10^6 CFU/mL was collected and 50 μL of each was grown in 96 well-microtiter plates (Bio-Rad, USA) with different concentrations of pentocin JL-1, ranging from 50 ng/mL to 15 μg/mL, at 37°C for 24 h. Each concentration was done in triplicate. The MIC represents the bacteriocin concentration at which 100% of growth is inhibited measured by the absorbance at 540 nm.

In series [1] the test system is Lactobacillus casei ATCC393. The series can be described thus: Agar-well diffusion test. Type of series: cell-based. The note with it: purified pentocin JL-1 15 μg/mL, pH 5.5, inhibition zone diameter class incl. 8 mm well. As to the method: (§1) The intestinal tracts of C. punctatum (grey carpet shark) were dissected and homogenized in 20 mL saline solution under sterile conditions and were then plated in serial dilutions in deMan, Rogosa, and Sharpe (MRS) medium. The plates were incubated aerobically at 30°C for 24 h. Several colonies were picked at random and incubated again in MRS broth. For screening for bacteriocin-producing strains, the agar-well diffusion test was used to detect antimicrobial activity in cell-free supernatants (filtered through a 0.22 μm Millipore filter) obtained by centrifugation (10,000g, 30 min, 4°C) after 18, 36, 60, and 72 h incubation. The Gram-positive strain MRSA GIM 1.771 and the Gram-negative strain Escherichia coli O157:H7 GIM 1.707 were used as indicator strains. Before the experiments, the indicator strains were grown to 10^6 CFU/mL. Then, 1 mL of the culture was mixed with 100 mL soft agar medium and poured onto individual Petri dishes. Subsequently, 8 mm diameter wells were punched onto the plates, and each well was filled with 100 μL of the cell-free supernatants under sterile conditions. The plates were incubated overnight at their respective optimum temperatures, and the clear zones of inhibition were measured in diameter and indicated the presence of antimicrobial activity. In our study, all bacteria culture media and chemical reagents were supplied by Sigma-Aldrich (USA).
(§2) The agar-well diffusion test as described previously was used to detect the antimicrobial activity of the purified pentocin JL-1 (15 μg/mL, pH 5.5). LAB strains were grown in MRS broth at 30°C for 16 h. Other Gram-positive indicator strains were grown in Tryptone Soy Broth (TSB) medium at 37°C and the Gram-negative indicator strains were grown in Luria-Bertani broth medium at 37°C.
A general note: A growth-free zone around the sample is the usual read-out of agar diffusion tests.

The test system of series [2] is Vibrio parahaemolyticus GIM1.306. In words: Agar-well diffusion test. Type of series: cell-based. As to the method: as §1, §2
In series [3] the test system is Lactobacillus acidophilus ATCC314. The series can be described thus: Agar-well diffusion test. Type of series: cell-based. As to the method:
as §1, §2

Series [4] concerns Listeria monocytogenes ATCC19112. In words: Agar-well diffusion test. The class given is cell-based. As to the method: as §1, §2
For series [5], the system named is Multidrug-resistant S. aureus 6. In words: Agar-well diffusion test. Type of series: cell-based. The note with it: 15 μg/mL, pH 5.5, pork isolate resistant to CIP, FOX, C, SXT, TET, GEN, mean ± SD, triplicate. As to the method: as §1, §2
Series [6] concerns Multidrug-resistant S. aureus 2. The series can be described thus: Agar-well diffusion test. The class given is cell-based. The note with it: 15 μg/mL, pH 5.5, pork isolate resistant to FOX, GEN, mean ± SD, triplicate. As to the method: as §1, §2
The subject of a further series is MRSA GIM 1.771 cells. The series can be described thus: Transmembrane pH gradient (ΔpH), BCECF AM fluorescence. The class given is cell-based, Staphylococcus aureus. To be noted: 1x MIC and 2x MIC, compared with 1% Triton X-100, 400 s. As to the method: ΔpH was monitored by the fluorescent pH probe 2′,7′-bis-(2-carboxyethyl)-5-(and-6)-carboxyfluorescein, acetoxymethyl ester (BCECF AM) (Beyotime, China). MRSA GIM 1.771 cells were grown to the exponential phase in 50 mL TSB culture medium, harvested, washed twice with 50 mL 5 mM HEPES buffer at 4°C, and resuspended in 5 mL of the same buffer for incubation on ice for 1 h. Subsequently, the 1 μM BCECF AM pH probe was added and the solution was incubated at 37°C for 1 h in the dark. Then 1 mL of the incubated solution was added to a fluorescence cuvette together with a final concentration of 1x, 2x, and 3x MIC of pentocin JL-1, respectively. Acetic acid (0.05%, w/v) was used as a negative control and 1% (w/v) Triton X-100 was used as a positive control. To the control, an equivalent volume of 3x MIC of pentocin JL-1 was added. The fluorescence intensity was monitored at 50 s intervals for 400 s immediately after mixing at Ex 488 nm and Em 535 nm using an F-4600 spectrofluorometer (Hitachi, Japan).

For another series, the target named is T1, pepsin (Sus scrofa, UniProt P00791).
T1 construct: purchased Sigma-Aldrich
T1 sequence (P00791 60-385): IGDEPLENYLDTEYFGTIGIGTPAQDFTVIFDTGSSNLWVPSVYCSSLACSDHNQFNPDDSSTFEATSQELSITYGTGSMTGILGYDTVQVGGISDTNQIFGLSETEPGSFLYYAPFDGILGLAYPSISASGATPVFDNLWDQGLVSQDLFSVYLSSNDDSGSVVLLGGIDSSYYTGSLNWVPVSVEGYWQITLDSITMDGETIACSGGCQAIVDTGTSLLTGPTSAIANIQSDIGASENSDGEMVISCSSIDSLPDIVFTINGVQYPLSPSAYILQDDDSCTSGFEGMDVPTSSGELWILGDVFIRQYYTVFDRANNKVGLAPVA
The series can be described thus: Enzymatic sensitivity, residual antibacterial activity. Type of series: in vitro ADME. To be noted: Pepsin 75 μg/mL (pH 1.8, 37°C), 1 h, pentocin JL-1 15 μg/mL. As to the method:
(§3) To determine enzymatic sensitivity, lyophilized purified pentocin JL-1 dissolved in 0.05% (w/v) acetic acid at 15 μg/mL was treated with the following enzymes at 75 μg/mL under their respective optimum pH and temperatures: proteinase K (pH 7.5, 37°C), trypsin (pH 8.0, 37°C), pepsin (pH 2.0, 37°C), and alkaline protease (pH 8.6, 50°C) (all from Sigma-Aldrich, USA). After incubation for 1 h, the bacteriocin-enzyme mixture was boiled for 5 min to inactivate the enzymes.
(§4) The residual antibacterial activities of the above samples were calculated using the agar-well diffusion test with MRSA GIM 1.771 as the indicator strain. […] Lyophilized pentocin JL-1 dissolved in 0.05% (w/v) acetic acid at 15 μg/mL with pH 5.5 was used as a control in all assays.

A further series concerns alkaline protease. Described as above. Type of series: in vitro ADME. To be noted: 1 h. As to the method: as §3, §4
In a further series the target is T2, proteinase K (Parengyodontium album, UniProt P06873).
T2 construct: purchased Sigma-Aldrich
T2 sequence (P06873 106-384): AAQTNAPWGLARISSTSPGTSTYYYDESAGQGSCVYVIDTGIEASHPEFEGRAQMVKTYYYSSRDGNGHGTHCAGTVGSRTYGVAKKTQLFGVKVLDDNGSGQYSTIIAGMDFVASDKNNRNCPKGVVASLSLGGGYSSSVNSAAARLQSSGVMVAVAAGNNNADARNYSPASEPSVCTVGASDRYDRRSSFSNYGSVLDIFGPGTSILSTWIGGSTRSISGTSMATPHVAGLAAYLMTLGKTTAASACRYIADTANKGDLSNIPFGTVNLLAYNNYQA
Described as above. Type of series: in vitro ADME. The note with it: 1 h. As to the method:
[…] After incubation for 1 h, the bacteriocin-enzyme mixture was boiled for 5 min to inactivate the enzymes.
as §4

The mark [7] stands for this setting: purified pentocin JL-1 15 μg/mL, pH 5.5, inhibition zone diameter class incl. 8 mm well.

What is called MIC is the lowest concentration found to suppress growth. As to “VAKVAR [pentocin JL-1, novel bacteriocin produced by Lactobacillus pentosus JL-1, purified by four-step chromatography, molecular mass 2987.23 Da, cationic and hydrophobic peptide]”, the MIC in the series with MRSA GIM 1.771 worked out at 7.5 mg/L. For the same substance, the Antimicrobial activity entry is recorded as “+++ (+++: 20–25)” in series [1], “−” in [2] (setting [7]), “−” in series [3] (setting [7]) and “++ (++: 15–19)” in [4] (setting [7]). The “inhibitory activity” value is “no inhibitory activity” in [2] (15 μg/mL, pH 5.5); “no inhibitory activity” in series [3] (15 μg/mL, pH 5.5); “inhibited” in series [4] (15 μg/mL, pH 5.5). In addition, the Inhibitor zone in [5] came to 23.7 ± 0.6 mm; in series [6] it was 22.5 ± 1.2 mm. The “extent of ΔpH dissipation” value with MRSA GIM 1.771 cells is “incompletely dissipated”. Further, the “Residual inhibitory activity (inhibition zone diameter, mm)” value is given as 0.0 ± 0.0 mm on pepsin (then boiled 5 min, agar-well diffusion vs MRSA GIM 1.771, mean ± SD, triplicate); 0.0 ± 0.0 mm in the series on alkaline protease (Alkaline protease 75 μg/mL (pH 8.6, 50°C), then boiled 5 min, pentocin JL-1 15 μg/mL, agar-well diffusion vs MRSA GIM 1.771, mean ± SD, triplicate); 17.3 ± 1.2 mm at proteinase K (Proteinase K 75 μg/mL (pH 7.5, 55°C), then boiled 5 min, pentocin JL-1 15 μg/mL, agar-well diffusion vs MRSA GIM 1.771, mean ± SD, triplicate). The “Residual inhibitory activity (%)” value at pepsin (vs MRSA GIM 1.771, relative to control) was 0.00^∗ %; in the series on alkaline protease (Alkaline protease 75 μg/mL (pH 8.6, 50°C), pentocin JL-1 15 μg/mL, vs MRSA GIM 1.771, relative to control) it was 0.00^∗ %; on proteinase K (Proteinase K 75 μg/mL (pH 7.5, 55°C), pentocin JL-1 15 μg/mL, vs MRSA GIM 1.771, relative to control) it was 72.38^∗ %. In addition, the “inhibitory action after enzyme treatment” value in the series on alkaline protease (alkaline protease 75 μg/mL) is listed as “completely abolished”; at proteinase K (proteinase K 75 μg/mL, p < 0.05) it was “significantly reduced”.
